Assay results reported in ChEMBL document CHEMBL5338723, “Emerging Target-Directed Approaches for the Treatment and Diagnosis of Microbial Infections” (J Med Chem, 2023).
≈ marks a conversion by molar mass, not a printed value. Values belong to the compound of their own block, whether it stands above or below them. *1 amine or outer side, *2 acyl side, *3 side chain or, on linkers, in order; H or OH if unused. Where a SMILES comes first, the peptide text is derived from it. [ ]: non-standard residue; d: D form. X3 = Cn1c(=O)ccn([C@@H]2S[C@H]([C@@H](O)[C@@H](N[*:1])C(=O)[*:2])[C@H](O)[C@H]2O)c1=O; Orn(N5-OH,N5-Ac) = CC(=O)N(O)CCC[C@H](N)C(=O)O

How the values were obtained:
Salmonella enteritidis = experiment: Antimicrobial activity against Salmonella enterica subsp. enterica serovar Enteritidis assessed as increase in microbial growth inhibition; assay type: functional
Escherichia coli [1] = experiment: Antimicrobial activity against Escherichia coli UTI89 assessed as microbial growth inhibition; assay type: functional
Escherichia coli [2] = experiment: Antimicrobial activity against Escherichia coli ATCC 35218 assessed as microbial growth inhibition; assay type: functional
Salmonella typhimurium = experiment: Antimicrobial activity against Salmonella enterica subsp. enterica serovar Typhimurium assessed as increase in microbial growth inhibition; assay type: functional
Neisseria gonorrhoeae = experiment: Antimicrobial activity against Neisseria gonorrhoeae assessed as microbial growth inhibition; assay type: functional
Escherichia coli [3] = experiment: Antimicrobial activity against Escherichia coli IR45 assessed as microbial growth inhibition; assay type: functional
Escherichia coli [4] = experiment: Antimicrobial activity against Escherichia coli AR055 assessed as microbial growth inhibition; assay type: functional
Escherichia coli [5] = experiment: Antimicrobial activity against Escherichia coli ATCC BAA-2469 assessed as microbial growth inhibition; assay type: functional
Escherichia coli [6] = experiment: Antimicrobial activity against Escherichia coli NCTC 13462 assessed as microbial growth inhibition; assay type: functional
Escherichia coli [7] = experiment: Antimicrobial activity against Escherichia coli AR0137 assessed as microbial growth inhibition; assay type: functional
Enterococcus faecalis = experiment: Antimicrobial activity against vancomycin-resistant Enterococcus faecalis ATCC 51575 assessed as microbial growth inhibition; assay type: functional
Escherichia coli [8] = experiment: Antimicrobial activity against Escherichia coli AR0493 assessed as microbial growth inhibition; assay type: functional
Escherichia coli [9] = experiment: Antimicrobial activity against Escherichia coli JW0451-2 assessed as microbial growth inhibition; assay type: functional
Escherichia coli [10] = experiment: Antimicrobial activity against Escherichia coli ATCC 25922 assessed as microbial growth inhibition; assay type: functional
Escherichia coli [11] = experiment: Antimicrobial activity against Escherichia coli H4/5 assessed as microbial growth inhibition; assay type: functional
Escherichia coli [12] = experiment: Antimicrobial activity against Escherichia coli AR0494 assessed as microbial growth inhibition; assay type: functional
Escherichia coli [13] = experiment: Antimicrobial activity against Escherichia coli NCTC 13846 assessed as microbial growth inhibition; assay type: functional
Escherichia coli [14] = experiment: Antimicrobial activity against Escherichia coli AR0349 assessed as microbial growth inhibition; assay type: functional
Escherichia coli [15] = experiment: Antimicrobial activity against Escherichia coli ExPEC H5 assessed as microbial growth inhibition; assay type: functional
Staphylococcus aureus [16] = experiment: Antimicrobial activity against methicillin-resistant Staphylococcus aureus ATCC 33591 assessed as microbial growth inhibition; assay type: functional
Staphylococcus aureus [17] = experiment: Antimicrobial activity against vancomycin intermediate Staphylococcus aureus assessed as microbial growth inhibition; assay type: functional
Escherichia coli [18] = experiment: Antimicrobial activity against Escherichia coli IR57 assessed as microbial growth inhibition; assay type: functional
Escherichia coli [19] = experiment: Antimicrobial activity against Escherichia coli NCTC 13441 assessed as microbial growth inhibition; assay type: functional
Escherichia coli [20] = experiment: Antimicrobial activity against Escherichia coli BW25113 assessed as microbial growth inhibition; assay type: functional
Escherichia coli [21] = experiment: Antimicrobial activity against Escherichia coli AR0114 assessed as microbial growth inhibition; assay type: functional
Escherichia coli [22] = experiment: Antimicrobial activity against Escherichia coli AR0150 assessed as microbial growth inhibition; assay type: functional
Escherichia coli [23] = experiment: Antimicrobial activity against Escherichia coli Swiss 15 assessed as microbial growth inhibition; assay type: functional
Escherichia coli [24] = experiment: Antimicrobial activity against Escherichia coli B096a assessed as microbial growth inhibition; assay type: functional
Escherichia coli [25] = experiment: Antimicrobial activity against Escherichia coli Swiss 2 (AF45) assessed as microbial growth inhibition; assay type: functional
Enterococcus faecium = experiment: Antimicrobial activity against vancomycin-resistant Enterococcus faecium ATCC 51559 assessed as microbial growth inhibition; assay type: functional
Escherichia coli [26] = experiment: Antimicrobial activity against Escherichia coli AR089 assessed as microbial growth inhibition; assay type: functional
Escherichia coli [27] = experiment: Antimicrobial activity against Escherichia coli Swiss 13 assessed as microbial growth inhibition; assay type: functional
Escherichia coli [28] = experiment: Antimicrobial activity against Escherichia coli AR0350 assessed as microbial growth inhibition; assay type: functional
Acinetobacter baumannii [29] = experiment: Antimicrobial activity against Acinetobacter baumannii GS2AB1 assessed as microbial growth inhibition; assay type: functional
Acinetobacter baumannii [30] = experiment: Antimicrobial activity against Acinetobacter baumannii ACC00527 assessed as microbial growth inhibition; assay type: functional
Escherichia coli [31] = experiment: Antimicrobial activity against Escherichia coli ATCC BAA-2340 assessed as microbial growth inhibition; assay type: functional
Acinetobacter baumannii [32] = experiment: Antimicrobial activity against Acinetobacter baumannii Naval-81 assessed as microbial growth inhibition; assay type: functional
Escherichia coli [33] = experiment: Antimicrobial activity against Escherichia coli B808 assessed as microbial growth inhibition; assay type: functional
Escherichia coli [34] = experiment: Antimicrobial activity against Escherichia coli IR3 assessed as microbial growth inhibition; assay type: functional
Escherichia coli [35] = experiment: Antimicrobial activity against Escherichia coli AR0346 assessed as microbial growth inhibition; assay type: functional
Escherichia coli [36] = experiment: Antimicrobial activity against Escherichia coli MG1655 expressing CMY-2 assessed as microbial growth inhibition in the presence of bathocuproinedisulfonic acid; assay type: functional
[37] = Cytotoxicity against human HepG2 cells assessed as lethal dose by CellTox Green cytotoxicity assay; assay type: toxicity, cell-based; details: read-out: LD50 (the source's name)
Escherichia coli [38] = experiment: Antimicrobial activity against Escherichia coli MG1655 expressing TEM-1 assessed as microbial growth inhibition in the presence of bathocuproinedisulfonic acid; assay type: functional
Escherichia coli [39] = experiment: Antibacterial activity against Escherichia coli UTI89 expressing NDM-1 assessed as inhibition of bacterial growth; assay type: functional
Escherichia coli [40] = experiment: Antimicrobial activity against Escherichia coli UTI89 expressing CMY-2 assessed as microbial growth inhibition in the presence of bathocuproinedisulfonic acid; assay type: functional
Escherichia coli [41] = experiment: Antibacterial activity against Escherichia coli UTI89 expressing CMY-2 assessed as inhibition of bacterial growth; assay type: functional
Escherichia coli [42] = experiment: Antimicrobial activity against Escherichia coli MG1655 expressing CTX-M-1 assessed as microbial growth inhibition in the presence of bathocuproinedisulfonic acid; assay type: functional
Escherichia coli [43] = experiment: Antimicrobial activity against Escherichia coli UTI89 expressing CTX-M-1 assessed as microbial growth inhibition in the presence of bathocuproinedisulfonic acid; assay type: functional
Escherichia coli [44] = experiment: Antibacterial activity against Escherichia coli UTI89 expressing CTX-M-1 assessed as inhibition of bacterial growth; assay type: functional
Escherichia coli [45] = experiment: Antimicrobial activity against Escherichia coli MG1655 expressing NDM-1 assessed as microbial growth inhibition in the presence of bathocuproinedisulfonic acid; assay type: functional
[46] = Cytotoxicity against human CCD 19Lu cells assessed as lethal dose by CellTox Green cytotoxicity assay; assay type: toxicity, cell-based; details: read-out: LD50 (the source's name)
Escherichia coli [47] = experiment: Antimicrobial activity against Escherichia coli UTI89 expressing TEM-1 assessed as microbial growth inhibition in the presence of bathocuproinedisulfonic acid; assay type: functional
Escherichia coli [48] = experiment: Antibacterial activity against Escherichia coli UTI89 assessed as inhibition of bacterial growth; assay type: functional
Escherichia coli [49] = experiment: Antibacterial activity against Escherichia coli MG1655 expressing CTX-M-1 assessed as inhibition of bacterial growth; assay type: functional
Escherichia coli [50] = experiment: Antibacterial activity against Escherichia coli MG1655 assessed as inhibition of bacterial growth; assay type: functional
Escherichia coli [51] = experiment: Antibacterial activity against Escherichia coli MG1655 expressing NDM-1 assessed as inhibition of bacterial growth; assay type: functional
Escherichia coli [52] = experiment: Antimicrobial activity against Escherichia coli UTI89 expressing NDM-1 assessed as microbial growth inhibition in the presence of bathocuproinedisulfonic acid; assay type: functional
Escherichia coli [53] = experiment: Antibacterial activity against Escherichia coli MG1655 expressing CMY-2 assessed as inhibition of bacterial growth; assay type: functional

MIC (Salmonella enteritidis): 0.01 µM
MIC (Escherichia coli [1]): 0.01 µM
MIC (Escherichia coli [2]): 0.01 µM (≈ 0.0139 µg/mL)
MIC (Salmonella typhimurium): 0.01 µM
Compound: C[C@@H](O)[C@H]1C(=O)N2C(C(=O)O)=C(S[C@H]3C[C@@H](C(=O)N(C)C)N(C(=O)CCCc4cn(CCOCCOCCOCCNC(=O)c5cc(O)c(O)c(C(=O)N[C@H]6COC(=O)[C@@H](NC(=O)c7cccc(O)c7O)COC(=O)[C@@H](NC(=O)c7cccc(O)c7O)COC6=O)c5)nn4)C3)[C@H](C)[C@H]12

MIC (Neisseria gonorrhoeae): 0.004 µg/mL (≈ 0.00421 µM)
Compound: CC(=O)N(O)CCC[C@H](NC(=O)[C@H](CCCN(O)C(C)=O)NC(=O)[C@@H](N)CCCN(O)C(C)=O)C(=O)N[C@@H](CO)C(=O)N[C@@H](C(=O)O)[C@H](O)[C@H]1S[C@@H](n2ccc(=O)n(C)c2=O)[C@H](O)[C@H]1O (H-[Orn(N5-OH,N5-Ac)][Orn(N5-OH,N5-Ac)][Orn(N5-OH,N5-Ac)]S[X3]-OH)

Compound: CN[C@H](CC(C)C)C(=O)N[C@H]1C(=O)N[C@@H](CC(N)=O)C(=O)N[C@H]2C(=O)N[C@H]3C(=O)N[C@H](C(=O)N[C@H](C(=O)O)c4cc(O)cc(O)c4-c4cc3ccc4O)[C@H](O)c3ccc(c(Cl)c3)Oc3cc2cc(c3O[C@@H]2O[C@H](CO)[C@@H](O)[C@H](O)[C@H]2O[C@H]2C[C@](C)(N)[C@H](O)[C@H](C)O2)Oc2ccc(cc2Cl)[C@H]1O [VANCOMYCIN]
MIC (Escherichia coli [3]): 64 µg/mL (≈ 44.2 µM)
MIC (Escherichia coli [4]): 64 µg/mL (≈ 44.2 µM)
MIC (Escherichia coli [5]): 64 µg/mL (≈ 44.2 µM)
MIC (Escherichia coli [6]): 64 µg/mL (≈ 44.2 µM)
MIC (Escherichia coli [7]): 64 µg/mL (≈ 44.2 µM)
MIC (Enterococcus faecalis): 250 µM (≈ 362 µg/mL)
MIC (Escherichia coli [8]): 64 µg/mL (≈ 44.2 µM)
MIC (Escherichia coli [9]): 64 µg/mL (≈ 44.2 µM)
MIC (Escherichia coli [10]): 64 µg/mL (≈ 44.2 µM)
MIC (Escherichia coli [11]): 64 µg/mL (≈ 44.2 µM)
MIC (Escherichia coli [12]): 64 µg/mL (≈ 44.2 µM)
MIC (Escherichia coli [13]): 64 µg/mL (≈ 44.2 µM)
MIC (Escherichia coli [14]): 64 µg/mL (≈ 44.2 µM)
MIC (Escherichia coli [1]): 64 µg/mL
MIC (Escherichia coli [15]): 64 µg/mL (≈ 44.2 µM)
MIC (Staphylococcus aureus [16]): 0.63 µM (≈ 0.913 µg/mL)
MIC (Staphylococcus aureus [17]): 13 µM (≈ 18.8 µg/mL)
MIC (Escherichia coli [18]): 64 µg/mL (≈ 44.2 µM)
MIC (Escherichia coli [19]): 64 µg/mL (≈ 44.2 µM)
MIC (Escherichia coli [20]): 64 µg/mL (≈ 44.2 µM)
MIC (Escherichia coli [21]): 64 µg/mL (≈ 44.2 µM)
MIC (Escherichia coli [22]): 64 µg/mL (≈ 44.2 µM)
MIC (Escherichia coli [23]): 64 µg/mL (≈ 44.2 µM)
MIC (Escherichia coli [24]): 64 µg/mL (≈ 44.2 µM)
MIC (Escherichia coli [25]): 64 µg/mL (≈ 44.2 µM)
MIC (Enterococcus faecium): 750 µM (≈ 1090 µg/mL)
MIC (Escherichia coli [26]): 64 µg/mL (≈ 44.2 µM)
MIC (Escherichia coli [27]): 64 µg/mL (≈ 44.2 µM)
MIC (Escherichia coli [28]): 64 µg/mL (≈ 44.2 µM)
MIC (Acinetobacter baumannii [29]): 64 µg/mL (≈ 44.2 µM)
MIC (Acinetobacter baumannii [30]): 64 µg/mL (≈ 44.2 µM)
MIC (Escherichia coli [31]): 64 µg/mL (≈ 44.2 µM)
MIC (Acinetobacter baumannii [32]): 64 µg/mL (≈ 44.2 µM)
MIC (Escherichia coli [33]): 64 µg/mL (≈ 44.2 µM)
MIC (Escherichia coli [34]): 64 µg/mL (≈ 44.2 µM)
MIC (Escherichia coli [35]): 64 µg/mL (≈ 44.2 µM)

Compound: O=C(Cc1ccccc1)N[C@@H]1C(=O)N2C(C(=O)O)=C(CSc3ccccn3)CS[C@H]12
MIC (Escherichia coli [36]): > 140 µM
CC50 [37]: > 500 µM
MIC (Escherichia coli [38]): > 140 µM
MIC (Escherichia coli [39]): 17.5 µM (≈ 7.73 µg/mL)
MIC (Escherichia coli [40]): > 140 µM
MIC (Escherichia coli [41]): 17.5 µM (≈ 7.73 µg/mL)
MIC (Escherichia coli [42]): > 140 µM
MIC (Escherichia coli [43]): > 140 µM
MIC (Escherichia coli [44]): 17.5 µM (≈ 7.73 µg/mL)
MIC (Escherichia coli [45]): > 140 µM
CC50 [46]: > 500 µM
MIC (Escherichia coli [47]): > 140 µM
MIC (Escherichia coli [48]): 35 µM (≈ 15.5 µg/mL)
MIC (Escherichia coli [49]): 17.5 µM (≈ 7.73 µg/mL)
MIC (Escherichia coli [50]): 35 µM (≈ 15.5 µg/mL)
MIC (Escherichia coli [51]): 17.5 µM (≈ 7.73 µg/mL)
MIC (Escherichia coli [52]): > 140 µM
MIC (Escherichia coli [53]): 17.5 µM (≈ 7.73 µg/mL)
